The source of these data is article PMC8550792, “Evolution of kinase polypharmacology across HSP90 drug discovery” (Cell Chemical Biology, 2021).

Common to all, as to assay: biochemical
Common to all, as to format: biochemical

In experiment [1] the target is T1, 382 unique human kinases (Homo sapiens, UniProt O75385).
T1 construct: purchased Reaction Biology (HotSpot contract assay)
T1 sequence (O75385 1-1050): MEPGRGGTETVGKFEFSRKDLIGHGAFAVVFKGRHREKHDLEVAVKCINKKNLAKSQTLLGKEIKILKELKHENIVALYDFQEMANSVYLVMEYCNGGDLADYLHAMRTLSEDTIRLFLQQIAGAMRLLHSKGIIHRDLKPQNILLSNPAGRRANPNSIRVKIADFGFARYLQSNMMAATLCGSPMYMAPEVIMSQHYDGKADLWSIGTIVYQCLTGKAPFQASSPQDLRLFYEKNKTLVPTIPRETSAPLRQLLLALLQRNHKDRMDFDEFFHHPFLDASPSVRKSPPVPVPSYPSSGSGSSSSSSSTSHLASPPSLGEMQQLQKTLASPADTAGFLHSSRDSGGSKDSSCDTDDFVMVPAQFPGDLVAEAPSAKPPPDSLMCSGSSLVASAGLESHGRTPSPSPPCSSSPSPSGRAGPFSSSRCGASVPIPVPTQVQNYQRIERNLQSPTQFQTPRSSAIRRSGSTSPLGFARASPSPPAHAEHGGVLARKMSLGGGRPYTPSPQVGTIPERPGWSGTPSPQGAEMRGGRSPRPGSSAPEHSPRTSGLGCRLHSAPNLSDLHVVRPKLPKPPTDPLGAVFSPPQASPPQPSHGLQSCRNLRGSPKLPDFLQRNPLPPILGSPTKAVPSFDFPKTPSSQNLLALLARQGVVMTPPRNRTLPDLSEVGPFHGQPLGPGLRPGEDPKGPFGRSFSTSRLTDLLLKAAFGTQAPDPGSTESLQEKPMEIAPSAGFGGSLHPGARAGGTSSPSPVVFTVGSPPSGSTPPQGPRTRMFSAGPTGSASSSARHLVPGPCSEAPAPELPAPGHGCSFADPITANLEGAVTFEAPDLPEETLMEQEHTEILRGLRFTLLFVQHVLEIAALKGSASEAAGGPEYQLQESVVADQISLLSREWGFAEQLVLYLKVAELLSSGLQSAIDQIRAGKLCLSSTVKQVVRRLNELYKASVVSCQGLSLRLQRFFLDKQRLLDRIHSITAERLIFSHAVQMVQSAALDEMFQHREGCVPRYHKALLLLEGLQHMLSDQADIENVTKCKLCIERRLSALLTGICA
As to conditions: ULK1, 10 uM; for remaining activity at 10 µM: read-out: % Enzyme Activity (relative to DMSO controls).

In experiment [2] the target is T2, 382 unique human kinases (Homo sapiens, UniProt Q7L7X3).
T2 construct: purchased Reaction Biology (HotSpot contract assay)
T2 sequence (Q7L7X3 1-1001): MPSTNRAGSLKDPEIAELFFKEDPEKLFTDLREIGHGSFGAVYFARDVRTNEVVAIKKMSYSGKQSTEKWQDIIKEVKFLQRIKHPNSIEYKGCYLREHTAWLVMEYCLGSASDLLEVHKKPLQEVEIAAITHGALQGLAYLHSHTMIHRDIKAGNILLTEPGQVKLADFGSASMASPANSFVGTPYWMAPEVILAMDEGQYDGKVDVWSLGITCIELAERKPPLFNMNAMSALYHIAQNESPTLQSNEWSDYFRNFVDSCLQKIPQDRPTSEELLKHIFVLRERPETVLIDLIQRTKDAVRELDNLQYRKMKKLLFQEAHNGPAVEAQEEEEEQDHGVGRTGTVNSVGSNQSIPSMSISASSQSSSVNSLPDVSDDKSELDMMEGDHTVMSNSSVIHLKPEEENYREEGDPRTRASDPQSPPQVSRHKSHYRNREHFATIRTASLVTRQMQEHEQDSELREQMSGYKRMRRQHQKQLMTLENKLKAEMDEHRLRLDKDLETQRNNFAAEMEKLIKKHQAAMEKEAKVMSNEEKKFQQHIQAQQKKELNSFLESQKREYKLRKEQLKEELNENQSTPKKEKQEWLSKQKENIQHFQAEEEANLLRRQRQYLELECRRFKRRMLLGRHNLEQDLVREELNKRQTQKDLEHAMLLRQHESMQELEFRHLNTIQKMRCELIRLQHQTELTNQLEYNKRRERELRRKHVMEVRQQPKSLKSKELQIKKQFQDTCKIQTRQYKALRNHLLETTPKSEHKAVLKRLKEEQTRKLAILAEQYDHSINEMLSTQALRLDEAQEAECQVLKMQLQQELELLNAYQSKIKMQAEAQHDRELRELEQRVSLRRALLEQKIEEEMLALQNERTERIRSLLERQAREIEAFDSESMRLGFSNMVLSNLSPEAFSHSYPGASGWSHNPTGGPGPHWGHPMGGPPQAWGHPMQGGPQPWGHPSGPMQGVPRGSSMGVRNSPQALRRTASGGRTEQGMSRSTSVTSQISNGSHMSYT
The conditions noted are these: kinase TAOK1, compound 10 uM; for remaining activity at 10 µM: read-out: % Enzyme Activity (relative to DMSO controls).

Experiment [3] deals with T3, 382 unique human kinases (Homo sapiens, UniProt Q86SG6).
T3 construct: purchased Reaction Biology (HotSpot contract assay)
T3 sequence (Q86SG6 1-692): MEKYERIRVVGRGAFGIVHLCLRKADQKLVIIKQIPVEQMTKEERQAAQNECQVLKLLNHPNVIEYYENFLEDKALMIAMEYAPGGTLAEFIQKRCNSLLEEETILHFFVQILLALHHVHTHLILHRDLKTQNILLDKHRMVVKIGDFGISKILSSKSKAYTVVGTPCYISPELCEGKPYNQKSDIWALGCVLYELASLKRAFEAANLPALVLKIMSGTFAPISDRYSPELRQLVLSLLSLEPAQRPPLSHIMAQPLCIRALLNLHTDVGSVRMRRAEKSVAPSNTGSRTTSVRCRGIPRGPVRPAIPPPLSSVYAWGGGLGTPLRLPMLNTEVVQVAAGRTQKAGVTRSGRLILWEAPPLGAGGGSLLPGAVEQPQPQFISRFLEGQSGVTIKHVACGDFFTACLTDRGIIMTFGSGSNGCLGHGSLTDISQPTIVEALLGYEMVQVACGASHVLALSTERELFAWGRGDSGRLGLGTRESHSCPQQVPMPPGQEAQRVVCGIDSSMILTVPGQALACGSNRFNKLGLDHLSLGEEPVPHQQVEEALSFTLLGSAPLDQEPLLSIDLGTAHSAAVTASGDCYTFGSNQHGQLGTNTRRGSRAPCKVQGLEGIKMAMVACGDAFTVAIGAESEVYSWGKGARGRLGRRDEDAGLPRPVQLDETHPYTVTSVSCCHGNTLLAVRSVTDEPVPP
The conditions noted are these: NEK8, [ATP] 100 µM, compound 10 uM; for remaining activity at 10 µM: read-out: % Enzyme Activity (relative to DMSO controls).

For the compound `CC(C)c1cc(-c2n[nH]c(=O)n2-c2ccc3c(ccn3C)c2)c(O)cc1O` [Ganetespib (STA9090)], the remaining activity at 10 µM is 73% in experiment [1] and 88.8% in experiment [2].
As for `CC(C)c1cc(-c2n[nH]c(=O)n2-c2ccc3c(ccn3C)c2)c(O)cc1O` [Ganetespib], the remaining activity at 10 µM in experiment [3] is 56.7%.
Consider `CCNC(=O)c1noc(-c2cc(C(C)C)c(O)cc2O)c1-c1ccc(CN2CCOCC2)cc1` [Luminespib (AUY-922)], for which the “% Enzyme Activity (relative to DMSO controls)” value in experiment [1] came out at 102.69%; in experiment [2], 92.28%. For the same compound, the remaining activity at 10 µM in experiment [1] came to 104%; in experiment [2] it was 95%.
For the compound `CCNC(=O)c1noc(-c2cc(C(C)C)c(O)cc2O)c1-c1ccc(CN2CCOCC2)cc1` [Luminespib], in experiment [3], the “% Enzyme Activity (relative to DMSO controls)” value is listed as 93.87% and the remaining activity at 10 µM was 94.8%.
